The record followed here is patent publication US20230113802A1, “COMPOSITION AND METHOD TO PREPARE LONG-ACTING INJECTABLE SUSPENSION CONTAINING MULTIPLE CANCER DRUGS” (University of Washington, priority 2020, published 2023).

A short description of the data set: Pharmacokinetic study of GT in DcNPs compared to CrEL (Example 2), plasma G, T and dFdU. Type of data set: in vivo, BALB/c mice. From the text:
Drugs extracted from biological matrices such as plasma or tissue homogenates were quantified by a Shimadzu HPLC system coupled to a 3200 QTRAP mass spectrometer (Applied Biosystems, Grand Island, N.Y.). The HPLC system consisted of two Shimadzu LC-20A pumps, a DGU-20A5 degasser, and a Shimadzu SIL-20AC HT autosampler. The mass spectrometer was equipped with an electrospray ionization (ESI) TurbolonSpray source. The system was operated with Analyst software, version 1.5.2 (ABSciex, Framingham, Mass.). Chromatographic separation of G and T was achieved using a Synergi column (100×2.0 mm; 4-μm particle size) (Phenomenex, Torrance, Calif.) with an inline C8 guard column (4.0×2.0 mm) also from Phenomenex. The flow rate was set to 0.5 mL/min with a 5 μl sample injection volume. The mobile phase for separation consisted of pump A (20 mM Ammonium Acetate in water) and B (Reagent Alcohol). […] The needle was washed with isopropanol after each injection. Analytes were monitored using multiple-reaction monitoring (MRM) for positive ions.
Statistical comparisons were performed using 2-sided t-tests with Welch's correction for unequal variances. Significance probability α was set at 0.05. Pharmacokinetic parameters from non-compartmental analysis were calculated using the trapezoidal rule and relevant pharmacokinetic equations shown in Table 3.

`O=c1ccn([C@@H]2O[C@H](CO)[C@@H](O)C2(F)F)c(=O)[nH]1` [dFdU, 2′,2′-difluoro-deoxyuridine]: where the note is “CrEL control dosage form”, the “plasma dFdU times higher than G at 3 hours” value worked out at 50 times. For the same molecule, the “plasma dFdU times lower than G at 3 hours” value (GT DcNP dosage form) is reported as 3.4 times. Besides, the “plasma concentration within 15 minutes” value (after GT in CrEL control dosage form IV, mice) stood at 11836.7 ng/mL. Also, under “female, BALB/c, mouse, plasma, intravenous, after control CrEL dosing, 50/5 mg/kg G/T IV, mice”, the concentration at 3 h turned out to be 4340 ng/mL.
